Results as given in PMC11022693, “Targeting C21orf58 is a Novel Treatment Strategy of Hepatocellular Carcinoma by Disrupting the Formation of JAK2/C21orf58/STAT3 Complex” (Advanced Science, 2024).

Target: T1, C21orf58 (Homo sapiens, UniProt P58505)
T1 construct: human C21orf58 in pET-21a, expressed in E. coli Rosetta (DE3), Ni-NTA purified, lyophilized
Test: 1H NMR of mixed ligand and purified protein
Type: binding
Details: deuterated water; mixed and incubated 30 min at room temperature; 600 MHz

T1 sequence (P58505 whole entry): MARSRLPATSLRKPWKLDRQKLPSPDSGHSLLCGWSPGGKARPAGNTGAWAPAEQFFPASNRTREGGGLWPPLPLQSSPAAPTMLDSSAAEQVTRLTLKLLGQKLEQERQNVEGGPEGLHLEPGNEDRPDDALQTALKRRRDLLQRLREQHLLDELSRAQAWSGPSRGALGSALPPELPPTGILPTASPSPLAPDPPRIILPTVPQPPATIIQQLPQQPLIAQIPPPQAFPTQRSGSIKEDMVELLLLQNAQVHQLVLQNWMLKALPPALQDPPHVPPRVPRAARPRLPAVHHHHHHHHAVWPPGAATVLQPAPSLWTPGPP

Q: With `C=C(C)CNc1ccc(C(C)C(=O)O)cc1` (stereo not shown) [alminoprofen] as the molecule, how does the “1H NMR of mixed ligand and purified protein” value read?
A: H Nuclear Magnetic Resonance Spectra suggested that alminoprofen could bind on the C21orf58 protein
